Assay [1] deals with CREB phosphorylation in the hippocampus. Kind of assay: CREB and pCREB immunoreactivities in hippocampal tissue after 3-day treatment. It is filed as in vivo, rat. Particulars: 3 days, prucalopride 2.5, RS 67333 1.5 mg/kg/day; for pCREB/CREB ratio in hippocampal tissue: control 0.196±0.02. As to the method: Drugs and Chemicals. […] All compounds were diluted in distilled water. All drug dosages refer to the free base. […] BrdU treatments consisted of two administrations per day (50 mg/kg, i.p. each, 8 h interval), starting from the day of minipump insertion until day 2 post-surgery.

Assay [2] relates to DRN 5-HT neurons. Particulars: cited from earlier work; for enhancement of DRN 5-HT neuron mean firing rate: Lucas et al., 2005.
Assay [3] relates to hippocampal CA3 pyramidal neurons. Kind of assay: Response of hippocampal CA3 pyramidal neurons to WAY 100635 after 3-day treatments (5-HT1A tonus). It is filed as in vivo, rat. Particulars: for 5-HT1A-mediated inhibitory tonus in the hippocampus: Example 7, 3 days, prucalopride 2.5, citalopram 10, RS 67333 1.5 mg/kg/day. As to the method: FIGS. 8A to 8C. […] Single-cell extracellular recordings were performed in the CA3 region of chloral-hydrate anaesthetized rats by using multiple-barrel glass microelectrodes, combined with microiontophoretic pumps (with the central barrel used for recordings). Pyramidal neurons were identified according to the classical criteria (see Example 5, the experimental procedures). The 5-HT4 agonists were administered through the use of osmotic minipumps, inserted subcutaneously in the region of the back. Recordings were performed with the minipumps still in place. *p<0.05, **p<0.01, ***p<0.001 vs control, Dunnett's test. […] FIG. 8C is a typical example showing the response of a single pyramidal neuron to cumulative doses of WAY 100635, in a rat co-administered with RS 67333 (same treatment as above for FIG. 8A) and the 5-HT depleter para-chlorophenylalanine (pCPA; 150 mg/kg, i.p. once daily 72, 48 and 24 h before the recordings).
Drugs and Chemicals. The following compounds were used: GR 125487 sulphamate, prucalopride monohydrochloride, citalopram hydrobromide (gifts from Glaxo, Janssen and Lundbeck laboratories, respectively), RS 67333 hydrochloride (Tocris Cookson Inc., Ellisville, Mo., USA), WAY 100635 hydrochloride (Research Biochemicals, Natick, Mass., USA), pCPA methyl ester hydrochloride, BrdU (Sigma-Aldrich Canada, Oakville, Ontario, Canada). All compounds were diluted in distilled water. All drug dosages refer to the free base. For chronic treatments, prucalopride (2.5 mg/kg/day), RS 67333 (1.5 mg/kg/day) or the vehicle were delivered through osmotic minipumps (Alza, Palo Alto, Calif., USA), inserted subcutaneously in the region of the back under short-duration (≦5 min) halothane anesthesia. The 5-HT depleter PCPA was administered once daily at the dose of 150 mg/kg, i.p., 72, 48 and 24 h before the recordings. BrdU treatments consisted of two administrations per day (50 mg/kg, i.p. each, 8 h interval), starting from the day of minipump insertion until day 2 post-surgery.
Microiontophoresis and extracellular recordings from hippocampal CA3 pyramidal neurons. Recording and microiontophoresis were performed with five-barreled glass micropipettes broken back to 8-12 μm under microscope control. The central barrel was filled with the same solution as in the DRN and was used for extracellular unitary recordings. Pyramidal neurons were identified by their large amplitude (0.5-1.2 mV) and long-duration (0.8-1.2 ms) simple spikes alternating with complex spike discharges (Kandel and Spencer, 1961). The side barrels contained the following solutions: quisqualate (1.5 mM in 200 mM NaCl, pH 8), WAY 100635 (15 mM in 200 mM NaCl, pH 4), and 2 M NaCl used for automatic current balancing. Rats were mounted in the stereotaxic apparatus and the micropipettes were lowered at 4.2 mm lateral and 4.2 anterior to lambda into the CA3 sub-region of the dorsal hippocampus.
The firing activity of dorsal hippocampus pyramidal neurons was then recorded in the CA3 subfield, before and after systemic administration of the selective 5-HTLA antagonist WAY 100635.

In assay [4] the test system is DRN 5-HT neurons. Put plainly: Extracellular single-unit recordings of DRN 5-HT neuron mean firing rate in anaesthetized rats. Particulars: prucalopride 2.5 mg/kg, RS 67333 1.5 mg/kg; for enhancement of DRN 5-HT neuron mean firing rate vs control: s.c. osmotic minipumps; for increase of DRN 5-HT neuron firing rate with respect to controls: subacute i.p., 30 min before recordings. Format: in vivo, rat.
Method: In a second part of the study, the selective 5-HT4 agonists prucalopride (Briejer et al., 2001) and RS 67333 (Eglen et al., 1995) were administered either subacutely (i.e. 30 min before the beginning of recordings), or continuously through the use of osmotic minipumps during 3 or 21 days. The selective 5-HT4 antagonist GR 125487 (Gale et al., 1994) was also used to confirm the involvement of 5-HT4 receptors in the effects of the agonists. Successive single-cell extracellular recording tracks were then performed along the DRN of anaesthetized rats. This set of experiments was performed in order to globally assess the effect of such treatments on the mean activity of 5-HT neurons.
Pharmacological treatments. All the 3 different 5-HT4 pharmacological agents were diluted in a solution of physiological saline (NaCl 0.9%), and administered in a dose range known to induce significant binding on 5-HT4 sites (Lucas and Debonnel, 2002; Lamirault and Simon, 2001; Porras et al., 2002). In subacute experiments, prucalopride, RS 67333 or their vehicle were administered i.p. 30 min. before the beginning of recordings. For chronic treatments (both 3 and 21 days), prucalopride, RS 67333 or their vehicle were delivered through osmotic minipumps (Alza, Palo Alto, Calif.) inserted subcutaneously. Electrophysiological recordings were performed with the minipumps in place. […] In a separate set of experiments, the 5-HT4 antagonist GR 125487 was tested in animals treated for 3 days with either prucalopride or RS 67333. Two DRN tracks were first performed, then GR 125487 was administered i.v. (via a lateral vein of the tail) and 2-3 additional tracks were performed, starting 30 min. after the injection. All drug dosages refer to the free base.
Extracellular recordings of DRN 5-HT neurons. Recordings were performed using single-barreled glass micropipettes. Electrodes were filled with a 2 M NaCl solution saturated with Fast Green FCF, resulting in an impedance of 2-5 MΩ. Rats were anaesthetized with chloral hydrate (400 mg/kg, i.p.) and placed in a stereotaxic frame. A burr hole was drilled on the midline 1 mm anterior to lambda. DRN 5-HT neurons were encountered over a distance of 1 mm starting immediately below the ventral border of the Sylvius aqueduct. These neurons were identified using the classical criteria: a slow (0.5-2.5 Hz) and regular firing rate and long-duration (0.8-1.2 ms) positive action potentials (Aghajanian, 1978). In each animal, four to five successive descents were performed along the DRN, and a total of 10-16 cells was recorded. At the end of the experiments, a 25 μA cathodal current was passed through the recording electrode to leave a Fast Green deposit at the recording site. Animals were sacrificed with an i.v. overdose of chloral hydrate, and the brain removed. The site of recording was verified under microscope immediately after experiments.
Statistical analysis. In each experimental group, data were expressed as means±S.E.M. of all the recorded neurons, unless otherwise specified. The effects of the different 5-HT4 agonist administrations on the firing activity of DRN 5-HT neurons was assessed using one-way ANOVAs, followed by the post-hoc Dunnett's test when significant. The influence of GR 125487 on the effect of a 3-day treatment with prucalopride or RS 67333 was assessed using two-way ANOVAs followed by the post-hoc Tukey's test. In all cases, p<0.05 was chosen as the criterion of significance.

[5] abbreviates: cumulative i.v. WAY 100635 500 μg/kg, 3-day prucalopride 2.5 mg/kg/day or RS 67333 1.5 mg/kg/day.
[6] abbreviates: acute prucalopride 1000 μg/kg i.v., Lucas and Debonnel, 2002.

On to `CCCCN1CCC(CCC(=O)c2cc(Cl)c(N)cc2OC)CC1` [RS 67333, 1-(4-amino-5-chloro-2-methoxyphenyl)-3-(1-n-burtl-4-piperidinyl)-1-propanone], for which the “pCREB/CREB ratio in hippocampal tissue” value in assay [1] came out at 0.373±0.07. For the same molecule, in assay [2], the “enhancement of DRN 5-HT neuron mean firing rate” value was 70%. Moreover, in assay [3] (3-day RS 67333, as restated in the Discussion), the “CA3 pyramidal neuron activity after WAY 100635” value is listed as “up to 440 % of pre-drug values”. The “quisqualate ejection currents required to obtain basal firing” value in assay [3] (3-day treated groups, controls 0 to −2 nA) is −4 to −6 nA. Also, in assay [3], the “5-HT1A-mediated inhibitory tonus in the hippocampus” value was “strong tonic inhibition”. In addition, the “firing activity of CA3 pyramidal neurons after WAY 100635” value is reported as 276 (±52) % of basal values in assay [3] (cumulative i.v. WAY 100635 200 μg/kg, 3-day RS 67333 1.5 mg/kg/day); 378 (±43) % of basal values in assay [3] (cumulative i.v. WAY 100635 300 μg/kg, 3-day RS 67333 1.5 mg/kg/day); 445 (±60) % of baseline in assay [3] (setting [5]). Further, the “enhancement of DRN 5-HT neuron mean firing rate vs control” value (from here on “enhancement … vs control”) is reported as 79% in assay [4] (3-day continuous treatment) and 59% in assay [4] (21-day continuous treatment). The “increase of DRN 5-HT neuron firing rate with respect to controls” value in assay [4] is 66%.

On to `COCCCN1CCC(NC(=O)c2cc(Cl)c(N)c3c2OCC3)CC1` [prucalopride], for which, in assay [1], the “increase of pCREB/CREB ratio vs control” value is “+54%” and the “pCREB/CREB ratio in hippocampal tissue” value came out at 0.302±0.07. Besides, the “enhancement of DRN 5-HT neuron mean firing rate” value in assay [2] is reported as 40-45%. In assay [2] (setting [6]), the “increase of DRN 5-HT activity in responder neurons” value is on record as “around 100%” and the “share of 5-HT neurons responding ("responders")” value is recorded as 47%. The “5-HT1A-mediated inhibitory tonus in the hippocampus” value in assay [3] is given as “modest inhibitory tonus”. Further, the “firing activity of CA3 pyramidal neurons after WAY 100635” value in assay [3] (setting [5]) was 191 (±31) % of baseline. The “enhancement … vs control” value in assay [4] (3-day continuous treatment) is “+50%”. The “enhancement … vs control” value in assay [4] (21-day continuous treatment) is on record as “+36%”. Besides, in assay [4], the “increase of DRN 5-HT neuron firing rate with respect to controls” value is 40%.
